Test results as given in patent US12173007B2, “Imidazopyridazine IL-17 inhibitor compounds” (Janssen Pharmaceutica NV, priority 2021, dated 2024).

What was measured:
[1] = target: IL-17A(FLAG-Tagged): IL-17RA(His-Tagged) binding (Homo sapiens, UniProt Q16552, K93Q); experiment: IL-17A(FLAG-tagged):IL-17RA(His-tagged) binding disruption Eu-HTRF assay, Protocol 2; details: FLAG-IL-17A 1 nM; average if tested more than once
Procedure, shortened: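 FLAG-tagged IL-17A (1 nM final) was preincubated with compound (2-fold serial dilutions, 22 points) for 1 h at rt in PBS + 0.01% Triton X-100. 10×His-IL-17RA, Eu-anti-FLAG and D2-anti-His in buffer containing KF were then added for 2 h at rt. IC50 came from the 665/615 nm HTRF ratio fitted to a one-site competition model.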

[2] = test system: IL-17A-induced G-CSF production in human normal keratinocyte (NHK); experiment: NHK assay: IL-17A-induced G-CSF production in normal human keratinocytes; format: cell-based; details: 24 h, IL-17A 5 ng/mL, G-CSF by HTRF, average if tested more than once
Procedure, shortened: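 Stimulus rhIL-17A 5 ng/mL final, premixed 1 h rt with compound; adult NHK, 5% FBS, 0.2% DMSO. Viability by CellTiter-Glo vs DMSO.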

Chain of UniProt Q16552 (Q16552 with tags, fused parts or gaps K93Q): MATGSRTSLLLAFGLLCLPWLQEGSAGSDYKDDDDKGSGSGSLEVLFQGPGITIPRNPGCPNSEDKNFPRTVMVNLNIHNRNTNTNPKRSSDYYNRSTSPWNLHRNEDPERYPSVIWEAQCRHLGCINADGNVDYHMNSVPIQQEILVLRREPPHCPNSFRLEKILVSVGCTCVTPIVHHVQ

Compound: O=C(N[C@H](c1cn2ncc([C@@H](COC3CC3)N3CC(F)(F)CNC3=O)cc2n1)C1CCC(F)(F)CC1)c1nonc1C(F)F [Example 78, N—((S)-(7-((S)-2-Cyclopropoxy-1-(5,5-difluoro-2-oxotetrahydropyrimidin-1(2H)-yl)ethyl)imidazo[1,2-b]pyridazin-2-yl)(4,4-difluorocyclohexyl)methyl)-4-(difluoromethyl)-1,2,5-oxadiazole-3-carboxamide]
- IC50 [1]: < 50 nM
- IC50 ([2]; Homo sapiens, Keratinocyte): < 50 nM

Compound: COc1nonc1C(=O)N[C@@H](CCC(C)(C)C(F)(F)F)c1cn2ncc(CN3CC(F)(F)CNC3=O)cc2n1 [Example 113, (S)—N-(1-(7-((5,5-Difluoro-2-oxotetrahydropyrimidin-1(2H)-yl)methyl)imidazo[1,2-b]pyridazin-2-yl)-5,5,5-trifluoro-4,4-dimethylpentyl)-4-methoxy-1,2,5-oxadiazole-3-carboxamide]
- IC50 [1]: < 50 nM
- IC50 ([2]; Homo sapiens, Keratinocyte): < 50 nM

Compound: [2H]C1([2H])NC(=O)N([C@H](COC2CC2)c2cnn3cc([C@@H](NC(=O)c4nonc4C)C4CCC(F)(F)CC4)nc3c2)C([2H])([2H])C1(F)F (single isomer, unassigned) [Example 40]
- IC50 [1]: < 50 nM
- IC50 ([2]; Homo sapiens, Keratinocyte): < 50 nM

Compound: COC[C@H](c1cnn2cc([C@@H](NC(=O)c3nonc3C3CC3)[C@H](C)OC3(C(F)(F)F)CC3)nc2c1)N1CC(F)(F)CNC1=O (relative stereo) [Example 91, 4-Cyclopropyl-N-((1R*,2S*)-1-(7-((S)-1-(5,5-difluoro-2-oxotetrahydropyrimidin-1(2H)-yl)-2-methoxyethyl)imidazo[1,2-b]pyridazin-2-yl)-2-(1-(trifluoromethyl)cyclopropoxy)propyl)-1,2,5-oxadiazole-3-carboxamide]
- IC50 [1]: 50 to 100 nM
- IC50 ([2]; Homo sapiens, Keratinocyte): > 100 nM

Compound: COC[C@H](c1cnn2cc([C@@H](NC(=O)c3nonc3OC)C3CCC(F)(F)CC3)nc2c1)N1CC(F)(F)CNC1=O [Example 108, N—((S)-(7-((S)-1-(5,5-Difluoro-2-oxotetrahydropyrimidin-1(2H)-yl)-2-methoxyethyl)imidazo[1,2-b]pyridazin-2-yl)(4,4-difluorocyclohexyl)methyl)-4-methoxy-1,2,5-oxadiazole-3-carboxamide]
- IC50 [1]: < 50 nM
- IC50 ([2]; Homo sapiens, Keratinocyte): < 50 nM

Compound: COC[C@H](c1cnn2cc([C@H](CCC(C)(C)C(F)(F)F)NC(=O)c3ncnn3C(C)C)nc2c1)N1CC(F)(F)CNC1=O [Example 111, N—((S)-1-(7-((S)-1-(5,5-Difluoro-2-oxotetrahydropyrimidin-1(2H)-yl)-2-methoxyethyl)imidazo[1,2-b]pyridazin-2-yl)-5,5,5-trifluoro-4,4-dimethylpentyl)-1-isopropyl-1H-1,2,4-triazole-5-carboxamide]
- IC50 [1]: < 50 nM
- IC50 ([2]; Homo sapiens, Keratinocyte): < 50 nM

Compound: Cc1nonc1C(=O)N[C@@H](CCC(C)(C)C(F)(F)F)c1cn2ncc([C@@H](COC3CC3)N3CC(F)(F)CNC3=O)cc2n1 [Example 56, N—((S)-1-(7-((S)-2-Cyclopropoxy-1-(5,5-difluoro-2-oxotetrahydropyrimidin-1(2H)-yl)ethyl)imidazo[1,2-b]pyridazin-2-yl)-5,5,5-trifluoro-4,4-dimethylpentyl)-4-methyl-1,2,5-oxadiazole-3-carboxamide]
- IC50 [1]: < 50 nM
- IC50 ([2]; Homo sapiens, Keratinocyte): < 50 nM

Compound: [2H]C1([2H])NC(=O)N([C@H](COC2CC2)c2cnn3cc([C@H](CCC(C)(C)C(F)(F)F)NC(=O)c4nonc4OC)nc3c2)C([2H])([2H])C1(F)F [Example 75, N—((S)-1-(7-((S)-2-Cyclopropoxy-1-(5,5-difluoro-2-oxotetrahydropyrimidin-1(2H)-yl-4,4,6,6-d4)ethyl)imidazo[1,2-b]pyridazin-2-yl)-5,5,5-trifluoro-4,4-dimethylpentyl)-4-methoxy-1,2,5-oxadiazole-3-carboxamide]
- IC50 [1]: < 50 nM
- IC50 ([2]; Homo sapiens, Keratinocyte): < 50 nM

Compound: Cc1nonc1C(=O)N[C@@H](CCC(C)(C)C(F)(F)F)c1cn2ncc(CN3C[C@H]4[C@@H](CNC3=O)C4(F)F)cc2n1 (relative stereo) [Example 121, N—((S)-1-(7-(((1R*,7S*)-8,8-Difluoro-4-oxo-3,5-diazabicyclo[5.1.0]octan-3-yl)methyl)imidazo[1,2-b]pyridazin-2-yl)-5,5,5-trifluoro-4,4-dimethylpentyl)-4-methyl-1,2,5-oxadiazole-3-carboxamide]
- IC50 [1]: < 50 nM
- IC50 ([2]; Homo sapiens, Keratinocyte): < 50 nM

Compound: [2H]C1([2H])NC(=O)N([C@H](COC2CC2)c2cnn3cc([C@H](CCC(C)(C)C(F)(F)F)NC(=O)c4nonc4C)nc3c2)C([2H])([2H])C1(F)F [Example 76, N—((S)-1-(7-((S)-2-Cyclopropoxy-1-(5,5-difluoro-2-oxotetrahydropyrimidin-1(2H)-yl-4,4,6,6-d4)ethyl)imidazo[1,2-b]pyridazin-2-yl)-5,5,5-trifluoro-4,4-dimethylpentyl)-4-methyl-1,2,5-oxadiazole-3-carboxamide]
- IC50 [1]: < 50 nM
- IC50 ([2]; Homo sapiens, Keratinocyte): < 50 nM

Compound: Cc1nonc1C(=O)N[C@@H](CCC(C)(C)C(F)(F)F)c1cn2ncc(CN3C[C@@H]4[C@H](CNC3=O)C4(F)F)cc2n1 (relative stereo) [Example 120, N—((S)-1-(7-(((1S*,7R*)-8,8-Difluoro-4-oxo-3,5-diazabicyclo[5.1.0]octan-3-yl)methyl)imidazo[1,2-b]pyridazin-2-yl)-5,5,5-trifluoro-4,4-dimethylpentyl)-4-methyl-1,2,5-oxadiazole-3-carboxamide]
- IC50 [1]: > 100 nM
- IC50 ([2]; Homo sapiens, Keratinocyte): > 100 nM

Compound: COC[C@H](c1cnn2cc([C@@H](NC(=O)c3nonc3C)C(C3CC3)C3CC3)nc2c1)N1CC(F)(F)CNC1=O [Example 102, N—((S)-2,2-Dicyclopropyl-1-(7-((S)-1-(5,5-difluoro-2-oxotetrahydropyrimidin-1(2H)-yl)-2-methoxyethyl)imidazo[1,2-b]pyridazin-2-yl)ethyl)-4-methyl-1,2,5-oxadiazole-3-carboxamide]
- IC50 [1]: < 50 nM
- IC50 ([2]; Homo sapiens, Keratinocyte): < 50 nM

Compound: COC[C@H](c1cnn2cc([C@@H](NC(=O)c3nonc3CC(F)(F)F)C3CCC(F)(F)CC3)nc2c1)N1CC(F)(F)CNC1=O [Example 130, N—((S)-(7-((S)-1-(5,5-Difluoro-2-oxotetrahydropyrimidin-1(2H)-yl)-2-methoxyethyl)imidazo[1,2-b]pyridazin-2-yl)(4,4-difluorocyclohexyl)methyl)-4-(2,2,2-trifluoroethyl)-1,2,5-oxadiazole-3-carboxamide]
- IC50 [1]: < 50 nM
- IC50 ([2]; Homo sapiens, Keratinocyte): < 50 nM

Compound: COc1nonc1C(=O)N[C@H](c1cn2ncc([C@@H](COC3CC3)N3CC(F)(F)CNC3=O)cc2n1)C1CCC(F)(F)CC1 [Example 77, N—((S)-(7-((S)-2-Cyclopropoxy-1-(5,5-difluoro-2-oxotetrahydropyrimidin-1(2H)-yl)ethyl)imidazo[1,2-b]pyridazin-2-yl)(4,4-difluorocyclohexyl)methyl)-4-methoxy-1,2,5-oxadiazole-3-carboxamide]
- IC50 [1]: < 50 nM
- IC50 ([2]; Homo sapiens, Keratinocyte): < 50 nM

Compound: COC[C@H](c1cnn2cc([C@@H](NC(=O)c3nonc3C3CC3(F)F)C3CCC(F)(F)CC3)nc2c1)N1CC(F)(F)CNC1=O (single isomer, unassigned) [Example 129, N—((S)-(7-((S)-1-(5,5-Difluoro-2-oxotetrahydropyrimidin-1(2H)-yl)-2-methoxyethyl)imidazo[1,2-b]pyridazin-2-yl)(4,4-difluorocyclohexyl)methyl)-4-((S*)-2,2-difluorocyclopropyl)-1,2,5-oxadiazole-3-carboxamide]
- IC50 [1]: < 50 nM
- IC50 [2]: < 50 nM

Compound: COC[C@H](c1cnn2cc(C(CC(C)(C)C(C)(F)F)NC(=O)c3nonc3C3CC3)nc2c1)N1CC(F)(F)CNC1=O (single isomer, unassigned) [Example 68, 4-Cyclopropyl-N—((S*)-1-(7-((S)-1-(5,5-difluoro-2-oxotetrahydropyrimidin-1(2H)-yl)-2-methoxyethyl)imidazo[1,2-b]pyridazin-2-yl)-4,4-difluoro-3,3-dimethylpentyl)-1,2,5-oxadiazole-3-carboxamide]
- IC50 [1]: < 50 nM
- IC50 ([2]; Homo sapiens, Keratinocyte): < 50 nM

Compound: CC(C)(CC[C@H](NC(=O)c1nonc1C1CC1)c1cn2ncc(CN3C[C@H]4[C@@H](CNC3=O)C4(F)F)cc2n1)C(F)(F)F (relative stereo) [Example 119, 4-Cyclopropyl-N—((S)-1-(7-(((1R*,7S*)-8,8-difluoro-4-oxo-3,5-diazabicyclo[5.1.0]octan-3-yl)methyl)imidazo[1,2-b]pyridazin-2-yl)-5,5,5-trifluoro-4,4-dimethylpentyl)-1,2,5-oxadiazole-3-carboxamide]
- IC50 [1]: < 50 nM
- IC50 ([2]; Homo sapiens, Keratinocyte): < 50 nM

Compound: COC[C@H](c1cnn2cc(C(CCC3(C(F)(F)F)CC3)NC(=O)c3nonc3C)nc2c1)N1CC(F)(F)CNC1=O (single isomer, unassigned) [Example 125, N—((R*)-1-(7-((S)-1-(5,5-Difluoro-2-oxotetrahydropyrimidin-1(2H)-yl)-2-methoxyethyl)imidazo[1,2-b]pyridazin-2-yl)-3-(1-(trifluoromethyl)cyclopropyl)propyl)-4-methyl-1,2,5-oxadiazole-3-carboxamide]
- IC50 [1]: > 100 nM
- IC50 ([2]; Homo sapiens, Keratinocyte): > 100 nM

Compound: [2H]C1([2H])NC(=O)N([C@H](COC2CC2)c2cnn3cc([C@@H](NC(=O)c4nocc4CC(F)(F)F)C4CCC(F)(F)CC4)nc3c2)C([2H])([2H])C1(F)F [Example 107, N—((S)-(7-((S)-2-Cyclopropoxy-1-(5,5-difluoro-2-oxotetrahydropyrimidin-1(2H)-yl-4,4,6,6-d4)ethyl)imidazo[1,2-b]pyridazin-2-yl)(4,4-difluorocyclohexyl)methyl)-4-(2,2,2-trifluoroethyl)isoxazole-3-carboxamide]
- IC50 [1]: < 50 nM
- IC50 ([2]; Homo sapiens, Keratinocyte): < 50 nM
